Measured values published in patent publication US9249102B2 (priority 2012, dated 2016).
Like-named read-outs stand apart in the source and are kept apart here.

Key:
Haemonchus contortus = assay: Method A: Haemonchus contortus L1 larvae, microtitre plate screen; settings: 96 h, read-out: motility inhibition
[1] = tested on: microfilaria of Dirofilaria immitis; assay: Method F: microfilaria of Dirofilaria immitis, survival at 24 hours
[2] = Method G: permeability in the Caco-2/TC7 in vitro model; settings: human, Caco-2, pH 6.5
Cooperia oncophora = assay: Method C: Cooperia oncophora L1 larvae in vitro; settings: 96 h, read-out: inhibition of motility
[3] = survival of microfilaria at 24 hours

Q: What does the source list for `O=C(CO[C@H]1CC[C@H](Nc2ccc([N+](=O)[O-])c(C(F)(F)F)c2)CC1)N1CCN(CC2Cc3ccccc3O2)CC1` (stereo partly drawn) [Compound 24, 1-[4-(2,3-dihydro-1-benzofuran-2-ylmethyl)piperazin-1-yl]-2-[(4-[[4-nitro-3-(trifluoromethyl)phenyl]amino]cyclohexyl)oxy]ethan-1-one]?
A: inhibition at 5 µg/mL (Haemonchus contortus): ≥ 90%; EC50 [1, 3]: < 1 µg/mL; Papp A→B at 20 μM [2]: 9.7 ×10⁻⁶ cm/s

Q: Which results are given for `O=C(CO[C@H]1CC[C@H](Nc2ccc([N+](=O)[O-])c(C(F)(F)F)c2)CC1)N1CCN(C(=O)C2Cc3cc(F)ccc3O2)CC1` (stereo partly drawn) [Compound 80, 1-[4-(5-fluoro-2,3-dihydro-benzofuran-2-carbonyl)-piperazin-1-yl]-2-[4-(4-nitro-3-trifluoromethyl-phenylamino)-cyclohexyloxy]-ethanone]?
A: inhibition at 5 µg/mL (Haemonchus contortus): ≥ 90%; Papp A→B at 20 μM [2]: 12.1 ×10⁻⁶ cm/s

Q: Which results are given for `N#Cc1ccc(N[C@H]2CC[C@H](OCC(=O)N3CCN(CC4Cc5cc(Cl)ccc5O4)CC3)CC2)cc1C(F)(F)F` (stereo partly drawn) [Compound 82]?
A: inhibition at 5 µg/mL (Haemonchus contortus): ≥ 90%; Papp A→B at 20 μM [2]: 7.1 ×10⁻⁶ cm/s

Q: For `N#Cc1ccc(N[C@H]2CC[C@H](OCC(=O)N3CCN(CC4Cc5cc(C(F)(F)F)ccc5O4)CC3)CC2)cc1C(F)(F)F` (stereo partly drawn) [Compound 84, 4-([4-[2-oxo-2-(4-[[5-(trifluoromethyl)-2,3-dihydro-1-benzofuran-2-yl]methyl]piperazin-1-yl)ethoxy]cyclohexyl]amino)-2-(trifluoromethyl)benzonitrile], which inhibition at 5 µg/mL (Haemonchus contortus) is on record?
A: The inhibition at 5 µg/mL was at least 90%.

Q: What about the EC50 [1] of the same compound?
A: Its EC50 is under 5 µg/mL.

Q: And the Papp A→B at 20 μM [2]?
A: The Papp A→B at 20 μM was 5.3 ×10⁻⁶ cm/s.

Q: Which EC50 [1, 3] does the source give for `O=C(NCCO[C@H]1CC[C@H](Nc2ccc([N+](=O)[O-])c(C(F)(F)F)c2)CC1)C(=O)NCc1cc2cc(F)ccc2o1` [Compound 221, N^1-((5-fluorobenzofuran-2-yl)methyl)-N^2-(2-(4-(4-nitro-3-(trifluoromethyl)phenylamino)cyclohexyloxy)ethyl)oxalamide] here?
A: The EC50 was under 1 µg/mL.

Q: And the Papp A→B at 20 μM [2]?
A: The Papp A→B at 20 μM was 7.5 ×10⁻⁶ cm/s.

Q: For `CN(c1ccc([N+](=O)[O-])c(C(F)(F)F)c1)[C@H]1CC[C@H](OCC(=O)N2CCN(c3ccc4cc(Cl)ccc4n3)CC2)CC1` [Compound 246, 1-[4-(6-chloroquinolin-2-yl)piperazin-1-yl]-2-[[4-[methyl[4-nitro-3-(trifluoromethyl)phenyl]amino]cyclohexyl]oxy]ethan-1-one], which inhibition at 5 µg/mL (Haemonchus contortus) is on record?
A: The inhibition at 5 µg/mL was at least 90%.

Q: What about the inhibition at 5 µg/mL (Cooperia oncophora) of the same compound?
A: The inhibition at 5 µg/mL was at least 90%.

Q: And the EC50 [1]?
A: Its EC50 is under 1 µg/mL.

Q: For `O=C(COC1CCC(Nc2ccc([N+](=O)[O-])c(C(F)(F)F)c2)CC1)N1CCN(c2ccc3cc(Br)ccc3n2)CC1` (stereo not drawn) [Compound 266, 2-[[4-[(4-nitro-3-trifluoromethyl-phenyl)amino]cyclohexyl]oxy]-1-[4-(6-bromoquinolin-2-yl)piperazin-1-yl]ethan-1-one], which inhibition at 5 µg/mL (Haemonchus contortus) is on record?
A: The inhibition at 5 µg/mL was at least 90%.

Q: What about the inhibition at 5 µg/mL (Cooperia oncophora) of the same compound?
A: Its inhibition at 5 µg/mL is at least 90%.

Q: And the EC50 [1, 3]?
A: Its EC50 is under 0.1 µg/mL.

Q: Which results are given for `CN(c1ccc([N+](=O)[O-])c(C(F)(F)F)c1)[C@H]1CC[C@H](OCC(=O)N2CCN(c3ccc4cc(Br)ccc4n3)CC2)CC1` [Compound 269, 2-[(4-[methyl-[4-nitro-3-(trifluoromethyl)phenyl]amino]cyclohexyl)-oxy]1-[4-(6-bromoquinolin-2-yl)piperazin-1-yl]ethan-1-one]?
A: inhibition at 5 µg/mL (Haemonchus contortus): ≥ 90%; inhibition at 5 µg/mL (Cooperia oncophora): ≥ 90%; EC50 [1, 3]: < 5 µg/mL

Q: Which results are given for `Cc1cc(N2CCN(C(=O)CO[C@H]3CC[C@H](Nc4ccc([N+](=O)[O-])c(C(F)(F)F)c4)CC3)CC2)nc2ccc(Cl)cc12` [Compound 270, 1-[4-(6-chloro-4-methyl-2-quinolyl)piperazin-1-yl]-2-[4-[4-nitro-3-(trifluoromethyl)anilino]cyclohexoxy]ethanone]?
A: inhibition at 5 µg/mL (Haemonchus contortus): ≥ 90%; inhibition at 5 µg/mL (Cooperia oncophora): ≥ 90%; EC50 [1, 3]: < 1 µg/mL

Q: What does the source list for `N#Cc1ccc(N[C@H]2CC[C@H](OCC(=O)N3CCN(c4ccc5cc(Br)ccc5n4)CC3)CC2)cc1C(F)(F)F` [Compound 271, 2-[(4-[[4-cyano-3-(trifluoromethyl)phenyl]amino]cyclohexyl)oxy]-1-[4-(6-bromoquinolin-2-yl)piperazin-1-yl]ethan-1-one]?
A: inhibition at 5 µg/mL (Haemonchus contortus): ≥ 90%; inhibition at 5 µg/mL (Cooperia oncophora): ≥ 90%; EC50 [1, 3]: < 1 µg/mL

Q: What does the source list for `O=C(CO[C@H]1CC[C@H](Nc2ccc([N+](=O)[O-])c(C(F)(F)F)c2)CC1)N1CCN(Cc2nc3cc(F)ccc3o2)CC1` [Compound 285, 2-[(4-[[4-nitro-3-(trifluoromethyl)phenyl]amino]cyclohexyl)-oxy]1-[4-(5-fluorobenzoxazol-2-ylmethyl)piperazin-1-yl]ethan-1-one]?
A: inhibition at 5 µg/mL (Haemonchus contortus): ≥ 90%; Papp A→B at 20 μM [2]: 12 ×10⁻⁶ cm/s

Q: Which inhibition at 5 µg/mL (Haemonchus contortus) does the source give for `N#Cc1ccc(N[C@H]2CC[C@H](OCC(=O)N3CCN(c4ccc5cc(F)ccc5c4F)CC3)CC2)cc1C(F)(F)F` [Compound 290, 4-(4-{2-[4-(1,6-difluoro-naphthalen-2-yl)-piperazin-1-yl]-2-oxo-ethoxy}-cyclohexylamino)-2-trifluoromethyl-benzonitrile] here?
A: Its inhibition at 5 µg/mL is at least 90%.

Q: What about the inhibition at 5 µg/mL (Cooperia oncophora) of the same compound?
A: Its inhibition at 5 µg/mL is at least 90%.

Q: What about the EC50 [1, 3] of the same compound?
A: The EC50 was under 1 µg/mL.

Q: What does the source list for `CC(c1ccc2cc(F)ccc2c1)N1CCN(C(=O)CO[C@H]2CC[C@H](Nc3ccc([N+](=O)[O-])c(C(F)(F)F)c3)CC2)CC1` (stereo partly drawn) [Compound 298, 2-[(4-[[4-nitro-3-(trifluoromethyl)phenyl]amino]cyclohexyl)-oxy]1-[4-[1-(6-fluoronaphthalen-2-yl)ethyl]piperazin-1-yl]ethan-1-one]?
A: inhibition at 5 µg/mL (Haemonchus contortus): ≥ 90%; inhibition at 5 µg/mL (Cooperia oncophora): ≥ 90%; EC50 [1, 3]: < 1 µg/mL

Q: Which inhibition at 5 µg/mL (Haemonchus contortus) does the source give for `CC(c1cc2cc(Cl)ccc2o1)N1CCN(C(=O)CO[C@H]2CC[C@H](Nc3ccc([N+](=O)[O-])c(C(F)(F)F)c3)CC2)CC1` (stereo partly drawn) [Compound 300] here?
A: Its inhibition at 5 µg/mL is at least 90%.

Q: What about the inhibition at 5 µg/mL (Cooperia oncophora) of the same compound?
A: The inhibition at 5 µg/mL was at least 90%.

Q: What about the EC50 [1, 3] of the same compound?
A: The EC50 was under 0.1 µg/mL.

Q: Which results are given for `C[C@@H]1CN(CC2Cc3cc(F)ccc3O2)[C@@H](C)CN1C(=O)CO[C@H]1CC[C@H](Nc2ccc([N+](=O)[O-])c(C(F)(F)F)c2)CC1` (stereo partly drawn) [Compound 307, 1-[(2R,5S)-4-(5-fluoro-2,3-dihydro-benzofuran-2-ylmethyl)-2,5-dimethyl-piperazin-1-yl]-2-[4-(4-nitro-3-trifluoromethyl-phenylamino)-cyclohexyloxy]-ethanone]?
A: inhibition at 5 µg/mL (Haemonchus contortus): ≥ 90%; inhibition at 5 µg/mL (Cooperia oncophora): ≥ 90%; EC50 [1, 3]: < 0.1 µg/mL

Q: Which inhibition at 5 µg/mL (Haemonchus contortus) does the source give for `O=C(CO[C@H]1CC[C@H](Nc2ccc([N+](=O)[O-])c(C(F)(F)F)c2)CC1)N1CCN(CC2Cc3cc(-c4ccc(F)cc4)ccc3O2)CC1` (stereo partly drawn) [Compound 310, 1-{4-[5-(4-fluoro-phenyl)-2,3-dihydro-benzofuran-2-ylmethyl]-piperazin-1-yl}-2-[4-(4-nitro-3-trifluoromethyl-phenylamino)-cyclohexyloxy]-ethanone] here?
A: The inhibition at 5 µg/mL was at least 90%.

Q: And the inhibition at 5 µg/mL (Cooperia oncophora)?
A: The inhibition at 5 µg/mL was at least 90%.

Q: What about the EC50 [1, 3] of the same compound?
A: Its EC50 is under 0.1 µg/mL.

Q: For `O=C(CO[C@H]1CC[C@H](Nc2ccc([N+](=O)[O-])c(C(F)(F)F)c2)CC1)N1CCN(Cc2cc3ccc(Cl)cc3o2)CC1` [Compound 322, 2-[(4-[[4-nitro-3-(trifluoromethyl)phenyl]amino]cyclohexyl)-oxy]1-[4-(6-chlorobenzofuran-2-ylmethyl)piperazin-1-yl]ethan-1-one], which inhibition at 5 µg/mL (Haemonchus contortus) is on record?
A: The inhibition at 5 µg/mL was at least 90%.

Q: And the Papp A→B at 20 μM [2]?
A: The Papp A→B at 20 μM was 7.9 ×10⁻⁶ cm/s.

Q: For `COc1ccc2oc(CN3CCN(C(=O)CO[C@H]4CC[C@H](Nc5ccc([N+](=O)[O-])c(C(F)(F)F)c5)CC4)CC3)cc2c1` [Compound 323, 2-[(4-[[4-nitro-3-(trifluoromethyl)phenyl]amino]cyclohexyl)-oxy]1-[4-(5-methoxybenzofuran-2-ylmethyl)piperazin-1-yl]ethan-1-one], which inhibition at 5 µg/mL (Haemonchus contortus) is on record?
A: Its inhibition at 5 µg/mL is at least 90%.

Q: And the Papp A→B at 20 μM [2]?
A: The Papp A→B at 20 μM was 11.9 ×10⁻⁶ cm/s.

Q: What does the source list for `O=C(CO[C@H]1CC[C@H](Nc2ccc([N+](=O)[O-])c(C(F)(F)F)c2)CC1)N1CCN(Cc2ccc3c(C(F)(F)F)cccc3n2)CC1` [Compound 329, 2-[4-(4-nitro-3-trifluoromethyl-phenylamino)-cyclohexyloxy]-1-[4-(5-trifluoromethyl-quinolin-2-ylmethyl)-piperazin-1-yl]-ethanone]?
A: inhibition at 5 µg/mL (Haemonchus contortus): ≥ 90%; Papp A→B at 20 μM [2]: 5.6 ×10⁻⁶ cm/s

Q: What does the source list for `O=C(CO[C@H]1CC[C@H](Nc2ccc([N+](=O)[O-])c(C(F)(F)F)c2)CC1)N1CCN(Cc2ccc3cc(C(F)(F)F)ccc3n2)CC1` [Compound 332, 2-[4-(4-nitro-3-trifluoromethyl-phenylamino)-cyclohexyloxy]-1-[4-(6-trifluoromethyl-quinolin-2-ylmethyl)-piperazin-1-yl]-ethanone]?
A: inhibition at 5 µg/mL (Haemonchus contortus): ≥ 90%; Papp A→B at 20 μM [2]: 6.5 ×10⁻⁶ cm/s

Q: What does the source list for `N#Cc1ccc(N[C@H]2CC[C@H](OCC(=O)N3CCN(Cc4ccc5ccc(C(F)(F)F)cc5n4)CC3)CC2)cc1C(F)(F)F` [Compound 333, 4-(4-{2-oxo-2-[4-(7-trifluoromethyl-quinolin-2-ylmethyl)-piperazin-1-yl]-ethoxy}-cyclohexylamino)-2-trifluoromethyl-benzonitrile]?
A: inhibition at 5 µg/mL (Haemonchus contortus): ≥ 90%; Papp A→B at 20 μM [2]: 8.1 ×10⁻⁶ cm/s

Q: What does the source list for `N#Cc1ccc(N[C@H]2CC[C@H](OCC(=O)N3CCN(Cc4ccc5cc(C(F)(F)F)ccc5n4)CC3)CC2)cc1C(F)(F)F` [Compound 334, 4-(4-{2-oxo-2-[4-(6-trifluoromethyl-quinolin-2-ylmethyl)-piperazin-1-yl]-ethoxy}-cyclohexylamino)-2-trifluoromethyl-benzonitrile]?
A: inhibition at 5 µg/mL (Haemonchus contortus): ≥ 90%; Papp A→B at 20 μM [2]: 11.9 ×10⁻⁶ cm/s

Q: For `N#Cc1ccc(N[C@H]2CC[C@H](OCC(=O)N3CCN(c4cnc5ccccc5c4)CC3)CC2)cc1C(F)(F)F` [Compound 335, 4-[[4-[2-oxo-2-[4-(3-quinolyl)piperazin-1-yl]ethoxy]cyclohexyl]amino]-2-(trifluoromethyl)benzonitrile], which inhibition at 5 µg/mL (Haemonchus contortus) is on record?
A: The inhibition at 5 µg/mL was at least 90%.

Q: What about the Papp A→B at 20 μM [2] of the same compound?
A: Its Papp A→B at 20 μM is 15 ×10⁻⁶ cm/s.

Q: Which inhibition at 5 µg/mL (Haemonchus contortus) does the source give for `O=C(CO[C@H]1CC[C@H](Nc2ccc([N+](=O)[O-])c(C(F)(F)F)c2)CC1)N1CCN(c2cnc3ccccc3c2)CC1` [Compound 336, 2-[4-[4-nitro-3-(trifluoromethyl)anilino]cyclohexoxy]-1-[4-(3-quinolyl)piperazin-1-yl]ethanone] here?
A: The inhibition at 5 µg/mL was at least 90%.

Q: What about the Papp A→B at 20 μM [2] of the same compound?
A: Its Papp A→B at 20 μM is 7.9 ×10⁻⁶ cm/s.
